Results taken from patent publication US9351956B1, “Pharmaceutical composition comprising an enantiomer of lipoamide and derivatives thereof and method of use” (GeroNova Research Inc., priority 2012, dated 2016).

How the values were obtained:
Assay type in all cases: cell-based
Conditions in all cases: HepG2 cells, 0.2 mM, 8 hours, 5.5 mM glucose
[1] = tested on: PI3K/AKT; experiment: dual-luciferase reporter array, FOXO reporter as inverse marker for PI3K/AKT
Protocol: (§1) Nine test compounds were synthesized and characterized. The effects of R, S and RS forms of LA, LAM and LAP on multiple signaling pathways were studied in HepG2 cells at 0.2 mM for 8 hours (5.5 mM glucose) using a dual-luciferase reporter array. The reporter is a mixture of Firefly Luciferase gene construct under control of an inducible transcription factor-responsive promoter and an internal control plasmid constitutively expressing Renilla luciferase gene. Each inducible construct monitors changes in the activity of a select transcription factor serving as a marker for activation or suppression of a specific signaling pathway.
This above studies identified previously unknown enantioselective and non-enantioselective pathways differentially affected by LA and amide derivatives. In some cases the racemic compounds activate pathways not activated by either enantiomer. […] The heavy metal response pathway was similarly affected by all nine compounds, which lowered values below control levels. […] The greatest increase in activity of a pathway by all compounds was activation of the Antioxidant Response Element (ARE) but the magnitude varied widely by compound. […] Activation of FOXO transcription factors is repressed by AKT phosphorylation and thus functions as an inverse marker for PI3K/AKT activity, such that low pathway activity increases the magnitude of the FOXO reporter.

[2] = tested on: C/EBP; experiment: dual-luciferase reporter array, C/EBP
Protocol: as §1

[3] = tested on: retinoic acid response element (RAR); experiment: dual-luciferase reporter array, RAR
Protocol: as §1

[4] = tested on: Antioxidant Response Element (ARE); experiment: dual-luciferase reporter array, ARE
Protocol: as §1

[5] = tested on: progesterone receptor (PR); experiment: dual-luciferase reporter array, PR
Protocol: as §1

[6] = tested on: peroxisome proliferator-activated receptor (PPAR); experiment: dual-luciferase reporter array, PPAR
Protocol: as §1

[7] = tested on: xenobiotic response element (XRE); experiment: dual-luciferase reporter array, XRE
Protocol: as §1

[8] = tested on: heat shock factor (HSF); experiment: dual-luciferase reporter array, HSF
Protocol: as §1

Row | PI3K/AKT activation (inverse of FOXO reporter response) [1] | XRE induction [7] | Compound | ARE response (activation) [4] | further results
1 | strongly activates | – | O=C(O)CCCC[C@@H]1CCSS1 [RLA, R-(+)-lipoic acid] | – | C/EBP activation [2]: selectively activates; RAR activation [3]: selectively activates
2 | – | – | NC(=O)CCCC[C@@H]1CCSS1 [RLAM, R-(+)-lipoamide] | strongest ARE response | PR activation [5]: selectively activates
3 | minimal | – | O=C(O)CCCC[C@H]1CCSS1 [SLA, S-(−)-lipoic acid] | – | PPAR activity [6]: lowered
4 | – | induced | NC(=O)CCCC[C@H]1CCSS1 [SLAM, S-(−)-lipoamide] | activated | HSF activation [8]: activated
5 | – | induced | CN(C)CCNC(=O)CCCC[C@H]1CCSS1 [SLAP] | – | –
